Source: patent US11447504B2, “Macrocyclic chlorine substituted indole derivatives” (Bayer Aktiengesellschaft, priority 2017, dated 2022)
Where a name gives a salt, the structure may show the parent alone. Read-outs that look alike come from different tables or passages of the source.

Columns and labels:
SUDHL5 [1] = assay: Antiproliferation assay 7, SUDHL5; format: cell-based; settings: SUDHL5 cells, CellTiter-Glo, read-out: Antiproli SUDHL5 IC50 (median)
Protocol: (§1) Assessment of the Anti-Proliferative Effect of Compounds in Different Cell Lines
(§2) The impact of compounds on the proliferation of different cell lines was assessed using the CellTiter-Glo® Luminescent Cell Viability reagent from Promega (G7573).
(§3) In parallel, cells were plated in a reference (day 0) plate for time zero determination.
(§4) Rim wells were excluded. The cells were incubated for 72 hours in a humidified incubator at 37° C. The day 0 plate was measured by adding 30 μL/well of CTG solution (CellTiter-Glo® Luminescent Cell Viability reagent, Promega G7573) to time zero wells in the reference plate followed by a 10 minutes incubation and luminescence reading at 0.1 ms. using the PHERAstar FS microplate reader (BMG Labtech).
(§5) After 72 hours incubation, the treated plates were measured in the same way as the day 0 plate mentioned above.

SUDHL10 [2] = assay: Induction of cytotoxicity (Assay 6), SUDHL10
SUDHL5 [3] = assay: Induction of caspase-3/7 activity (Assay 4), SUDHL5; format: cell-based; settings: SUDHL5 cells
Protocol: (§6) Induction of Caspase-3/7 Activity Upon Treatment of Cells with Selected Compounds
The BH3-domain of MCL-1 sequesters pro-apoptotic proteins, thereby inhibiting apoptosis. In contrast, MCL-1 inhibitors are expected to antagonize this effect leading to an increase in apoptosis, which can be determined by measuring the activity of caspase-3/7.
(§7) The activity of caspase-3/7 was determined in DLBCL (Diffuse large B-cell lymphoma) cell lines (SUDHL5 and SUDHL10) upon treatment with different compounds, using the Caspase-Glo®3/7 reagent from Promega (G8092).
(§8) Rim wells were excluded. The cells were incubated for 3 hours in a humidified incubator at 37° C.
(§9) For the evaluation of the results, the background measured with “medium-only” was subtracted from all other values.

SUDHL10 [4] = assay: Induction of caspase-3/7 activity (Assay 4), SUDHL10; format: cell-based; settings: SUDHL10 cells
Protocol: as §6
In contrast, MCL-1 inhibitors are expected to antagonize this effect leading to an increase in apoptosis, which can be determined by measuring the activity of caspase-3/7.
as §7, §8, §9

SUDHL5 [5] = assay: Induction of cytotoxicity (Assay 6), SUDHL5
MV-4-11 = assay: Antiproliferation assay 7, MV-4-11; format: cell-based; settings: MV-4-11 cells, CellTiter-Glo, read-out: Antiproli MV-4-11 IC50 median
Protocol: as §1, §2, §3, §4, §5

AMO-1 = assay: Antiproliferation assay 7, AMO-1; format: cell-based; settings: AMO-1 cells, CellTiter-Glo, read-out: Antiproli AMO-1 IC50 median
Protocol: as §1, §2, §3, §4, §5

HMC-1-8 = assay: Antiproliferation assay 7, HMC-1-8; format: cell-based; settings: 72 h, HMC-1-8 cells, CellTiter-Glo, read-out: Antiproli HMC-1-8 IC50 median
Protocol: as §1, §2, §3, §4, §5

[6] = Homo sapiens, SU-DHL10, 5 h, read-out: Cytotox SUDHL10 IC50 (median), SUDHL10 cells, 5 hours, CellTiter-Glo
[7] = Homo sapiens, SU-DHL-5, 3 h, Caspase-Glo 3/7, read-out: Caspase SUDHL5 EC50 (median)
[8] = Homo sapiens, SU-DHL10, 3 h, Caspase-Glo 3/7, read-out: Caspase SUDHL10 EC50 (median)
[9] = Homo sapiens, SU-DHL-5, 5 h, read-out: Cytotox SUDHL5 IC50 (median), SUDHL5 cells, 5 hours, CellTiter-Glo
[10] = read-out: Cytotox SUDHL10 IC50 (median), SUDHL10 cells, 5 hours, CellTiter-Glo
[11] = 3 hours, Caspase-Glo 3/7, read-out: Caspase SUDHL5 EC50 (median)
[12] = 3 hours, Caspase-Glo 3/7, read-out: Caspase SUDHL10 EC50 (median)
[13] = read-out: Cytotox SUDHL5 IC50 (median), SUDHL5 cells, 5 hours, CellTiter-Glo

| SMILES | IC50 (SUDHL5 [1]; Homo sapiens, SU-DHL-5, 72 h) | EC50 (SUDHL5 [3]; [7]) | EC50 (SUDHL10 [4]; [8]) | IC50 (MV-4-11; Homo sapiens, MV4-11, 72 h) | IC50 (SUDHL5 [1]; 72 hours) | EC50 (SUDHL5 [3]; [11]) | EC50 (SUDHL10 [4]; [12]) | IC50 (MV-4-11; 72 hours) | IC50 (SUDHL10 [2]; [6]) | IC50 (SUDHL5 [5]; [9]) | IC50 (AMO-1; Homo sapiens, AMO1, 72 h) | IC50 (HMC-1-8) | IC50 (SUDHL10 [2]; [10]) | IC50 (SUDHL5 [5]; [13]) | IC50 (AMO-1; 72 hours) |
| --- | --- | --- | --- | --- | --- | --- | --- | --- | --- | --- | --- | --- | --- | --- | --- |
| CCc1c2c(nn1C)COCCCCn1c(C(=O)O)c(CCCOc3cccc4cc(F)ccc34)c3ccc(Cl)c-2c31 (racemic) [Example 36, (rac)-4-chloro-3-ethyl-7-{3-[(6-fluoronaphthalen-1-yl)oxy]propyl}-2-methyl-2,10,11,12,13,15-hexahydropyrazolo[4′,3′:9,10][1,6]oxazacycloundecino[8,7,6-hi]indole-8-carboxylic Acid] | 0.34 µM | 0.3 µM | 0.45 µM | 1.01 µM | – | – | – | – | 0.64 µM | 0.3 µM | 0.286 µM | – | – | – | – |
| CCc1nn(C)c2c1-c1c(Cl)ccc3c(CCCOc4cccc5cc(F)ccc45)c(C(=O)O)n(c13)CCCCN(C)C2 (racemic) [Example 39, (rac)-4-chloro-3-ethyl-7-{3-[(6-fluoronaphthalen-1-yl)oxy]propyl}-1,14-dimethyl-10,11,12,13,14,15-hexahydro-1H-pyrazolo[3′,4′:8,9][1,6]diazacycloundecino[10,11,1-hi]indole-8-carboxylic Acid] | 0.2 µM | 0.2 µM | 0.39 µM | 0.442 µM | – | – | – | – | 0.41 µM | 0.23 µM | 0.359 µM | – | – | – | – |
| CCc1nn(CCN2CCOCC2)c2c1-c1c(Cl)ccc3c(CCCOc4cccc5ccccc45)c(C(=O)O)n(c13)C/C=C\CN(C)C2 (racemic) [Example 42, (rac)-(11Z)-4-chloro-3-ethyl-14-methyl-1-[2-(morpholin-4-yl)ethyl]-7-{3-[(naphthalen-1-yl)oxy]-propyl}-10,13,14,15-tetrahydro-1H-pyrazolo[3′,4′:8,9][1,6]diazacycloundecino[10,11,1-hi]indole-8-carboxylic Acid] | 0.22 µM | 0.54 µM | 1.3 µM | 0.975 µM | – | – | – | – | 1.6 µM | 0.6 µM | 1.38 µM | – | – | – | – |
| CCc1c2c(nn1C)CN(C)CCCCn1c(C(=O)O)c(CCCOc3cccc4cc(F)ccc34)c3ccc(Cl)c-2c31 (single isomer, unassigned; enantiomer 2) [Example 7, 4-chloro-3-ethyl-7-{3-[(6-fluoronaphthalen-1-yl)oxy]propyl}-2,14-dimethyl-10,11,12,13,14,15-hexahydro-2H-pyrazolo[3′,4′:8,9][1,6]diazacycloundecino[10,11,1-hi]indole-8-carboxylic Acid (Enantiomer 2)] | – | – | – | – | 4.2 µM | 11 µM | 16 µM | 8.63 µM | – | – | – | – | 8.3 µM | 7.1 µM | 11.1 µM |
| CCc1c2c(nn1C)COCCCCn1c(C(=O)O)c(CCCOc3cccc4cc(F)ccc34)c3ccc(Cl)c-2c31 (single isomer, unassigned; enantiomer 2) [Example 38, (−)-4-chloro-3-ethyl-7-{3-[(6-fluoronaphthalen-1-yl)oxy]propyl}-2-methyl-2,10,11,12,13,15-hexahydropyrazolo[4′,3′:9,10][1,6]oxazacycloundecino[8,7,6-hi]indole-8-carboxylic acid-N-ethylethanamine Salt (Enantiomer 2)] | – | – | – | – | 1.8 µM | – | 13 µM | 13.4 µM | – | – | – | – | 14 µM | 4.3 µM | 11.5 µM |
| CCc1nn(C)c2c1-c1c(Cl)ccc3c(CCCOc4cccc5cc(F)ccc45)c(C(=O)O)n(c13)CCCCN(C)C2 (single isomer, unassigned; enantiomer 2) [Example 41, 4-chloro-3-ethyl-7-{3-[(6-fluoronaphthalen-1-yl)oxy]propyl}-1,14-dimethyl-10,11,12,13,14,15-hexahydro-1H-pyrazolo[3′,4′:8,9][1,6]diazacycloundecino[10,11,1-hi]indole-8-carboxylic Acid (Enantiomer 2)] | – | – | – | – | 2.7 µM | 2.8 µM | 9.4 µM | 4.89 µM | – | – | – | – | 12 µM | 4 µM | 14.9 µM |
| CCc1nn(CCN2CCOCC2)c2c1-c1c(Cl)ccc3c(CCCOc4cccc5ccccc45)c(C(=O)O)n(c13)C/C=C\CN(C)C2 (single isomer, unassigned; enantiomer 2) [Example 44, (11Z)-4-chloro-3-ethyl-14-methyl-1-[2-(morpholin-4-yl)ethyl]-7-{3-[(naphthalen-1-yl)oxy]propyl}-10,13,14,15-tetrahydro-1H-pyrazolo[3′,4′:8,9][1,6]diazacycloundecino[10,11,1-hi]indole-8-carboxylic Acid-Ammonia Salt (Enantiomer 2)] | – | – | – | – | 7.2 µM | 9.4 µM | 13 µM | 11.7 µM | – | – | – | – | 15 µM | 8.1 µM | 15.5 µM |

Second part, led by results:

| IC50 (SUDHL5 [1]; Homo sapiens, SU-DHL-5, 72 h) | EC50 (SUDHL5 [3]; [7]) | EC50 (SUDHL10 [4]; [8]) | IC50 (MV-4-11; Homo sapiens, MV4-11, 72 h) | IC50 (SUDHL5 [1]; 72 hours) | EC50 (SUDHL5 [3]; [11]) | EC50 (SUDHL10 [4]; [12]) | IC50 (MV-4-11; 72 hours) | SMILES | IC50 (SUDHL10 [2]; [6]) | IC50 (SUDHL5 [5]; [9]) | IC50 (AMO-1; Homo sapiens, AMO1, 72 h) | IC50 (HMC-1-8) | IC50 (SUDHL10 [2]; [10]) | IC50 (SUDHL5 [5]; [13]) | IC50 (AMO-1; 72 hours) |
| --- | --- | --- | --- | --- | --- | --- | --- | --- | --- | --- | --- | --- | --- | --- | --- |
| 0.53 µM | 0.29 µM | 0.46 µM | 0.628 µM | – | – | – | – | CCc1nn(CCN2CCOCC2)c2c1-c1c(Cl)ccc3c(CCCOc4cccc5ccccc45)c(C(=O)O)n(c13)CCCCN(C)C2 (racemic) [Example 45, (rac)-4-chloro-3-ethyl-14-methyl-1-[2-(morpholin-4-yl)ethyl]-7-{3-[(naphthalen-1-yl)oxy]propyl}-10,11,12,13,14,15-hexahydro-1H-pyrazolo[3′,4′:8,9][1,6]diazacycloundecino[10,11,1-hi]indole-8-carboxylic Acid] | 0.75 µM | 0.4 µM | 0.593 µM | – | – | – | – |
| 1.6 µM | 0.8 µM | 1.9 µM | 1.71 µM | – | – | – | – | CCc1c2c(nn1C)CCCCCCn1c(C(=O)O)c(CCCOc3cccc4ccccc34)c3ccc(Cl)c-2c31 (racemic) [Example 51, (rac)-4-chloro-3-ethyl-2-methyl-7-{3-[(naphthalen-1-yl)oxy]propyl}-10,11,12,13,14,15-hexahydro-2H-pyrazolo[4′,3′:4,5]azacycloundecino[3,2,1-hi]indole-8-carboxylic Acid] | 2 µM | 0.84 µM | 2.15 µM | – | – | – | – |
| – | 0.33 µM | – | – | – | – | – | – | CCc1c2c(nn1C)CN(CC(F)(F)F)CCCCn1c(C(=O)O)c(CCCOc3cccc4cc(F)ccc34)c3ccc(Cl)c-2c31 (racemic) [Example 61, (rac) 4-chloro-3-ethyl-7-{3-[(6-fluoronaphthalen-1-yl)oxy]propyl}-2-methyl-14-(2,2,2-trifluoroethyl)-10,11,12,13,14,15-hexahydro-2H-pyrazolo[3′,4′:8,9][1,6]diazacycloundecino[10,11,1-hi]indole-8-carboxylic Acid] | – | 0.54 µM | 1.87 µM | 7.15 µM | – | – | – |
| – | – | – | – | 8 µM | 11 µM | 22 µM | 5.65 µM | CCc1nn(CCN2CCOCC2)c2c1-c1c(Cl)ccc3c(CCCOc4cccc5ccccc45)c(C(=O)O)n(c13)CCCCN(C)C2 (single isomer, unassigned; enantiomer 2) [Example 47, 4-chloro-3-ethyl-14-methyl-1-[2-(morpholin-4-yl)ethyl]-7-{3-[(naphthalen-1-yl)oxy]propyl}-10,11,12,13,14,15-hexahydro-1H-pyrazolo[3′,4′:8,9][1,6]diazacycloundecino[10,11,1-hi]indole-8-carboxylic Acid (Enantiomer 2)] | – | – | – | – | 17 µM | 10 µM | – |
